The values below come from patent publication US20110201564A1, “SUBSTITUTED 7-SULFANYLMETHYL, 7-SULFINYLMETHYL AND 7-SULFONYLMETHYL INDOLES AND USE THEREOF” (BAYER SCHERING PHARMA AKTIENGESELLSCHAFT, priority 2008, published 2011).

Type in all cases: cell-based
Assay [1] has as its target T1, human mineralocorticoid receptor (MR) (Homo sapiens, UniProt P08235).
T1 construct: expressed in transfected cells; host or cells: CHO K1
T1 sequence (P08235 734-984 limits assumed): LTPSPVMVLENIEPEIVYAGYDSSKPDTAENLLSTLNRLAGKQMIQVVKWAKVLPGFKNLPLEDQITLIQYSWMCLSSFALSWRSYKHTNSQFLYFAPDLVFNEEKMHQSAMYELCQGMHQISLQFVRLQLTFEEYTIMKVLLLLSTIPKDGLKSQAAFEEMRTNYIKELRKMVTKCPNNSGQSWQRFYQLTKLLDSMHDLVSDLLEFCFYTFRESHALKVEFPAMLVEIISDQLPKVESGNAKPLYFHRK
Briefly: Cellular in vitro assay, GAL4-MR chimera luciferase reporter in CHO K1 cells (inhibitory MR activity). To be noted: antagonism vs aldosterone; CHO K1 GAL4-MR LBD luciferase reporter. The source says:
(§1) 1. Cellular In Vitro Assay to Determine the Inhibitory MR Activity and MR Selectivity Compared with Other Steroid Hormone Receptors
(§2) Antagonists of the human mineralocorticoid receptor (MR) are identified, and the activity of the compounds described herein is quantified with the aid of a recombinant cell line. The cell is originally derived from a hamster ovary epithelial cell (Chinese Hamster Ovary, CHO K1, ATCC: American Type Culture Collection, VA 20108, USA).
(§3) An established chimera system in which the ligand-binding domains of human steroid hormone receptors are fused to the DNA-binding domain of the yeast transcription factor GAL4 is used in this CHO K1 cell line. The GAL4-steroid hormone receptor chimeras produced in this way are cotransfected and stably expressed with a reporter construct in the CHO cells.
(§4) To generate the GAL4-steroid hormone receptor chimeras, the GAL4 DNA-binding domain (amino acids 1-147) from the vector pFC2-dbd (from Stratagene) is cloned with the PCR-amplified ligand-binding domains of the mineralocorticoid receptor (MR, amino acids 734-985), of the progesterone receptor (PR, amino acids 680-933) and of the androgen receptor (AR, amino acids 667-919) into the vector pIRES2 (from Clontech). The reporter construct, which comprises five copies of the GAL4 binding site upstream of a thymidine kinase promoter, leads to expression of firefly luciferase (Photinus pyralis) after activation and binding of the GAL4-steroid hormone receptor chimeras by the respective specific agonists aldosterone (MR), dexamethasone (GR), progesterone (PR) and dihydrotestosterone (AR).
(§5) The MR, PR and AR cells are plated out in medium (Optimem, 2.5% FCS, 2 mM glutamine, 10 mM HEPES) in 96- (or 384- or 1536-)well microtiter plates on the day before the assay and are kept in a cell incubator (96% humidity, 5% v/v CO2, 37° C.). On the day of the assay, the substances to be tested are taken up in the abovementioned medium and added to the cells. About 10 to 30 minutes after addition of the test substances, the respective specific agonists of the steroid hormone receptors are added. After a further incubation time of 5 to 6 hours, the luciferase activity is measured with the aid of a video camera. The measured relative light units as a function of the substance concentration result in a sigmoidal stimulation curve. The IC50 values are calculated with the aid of the GraphPad PRISM computer program (Version 3.02).
(In general: A reporter such as luciferase makes a cellular process visible.)

In assay [2] the target is T2, progesterone receptor (PR) (Homo sapiens, UniProt P06401).
T2 construct: of the progesterone receptor (PR, amino acids 680-933); expressed in transfected cells; host or cells: CHO K1
T2 sequence (P06401 680-933): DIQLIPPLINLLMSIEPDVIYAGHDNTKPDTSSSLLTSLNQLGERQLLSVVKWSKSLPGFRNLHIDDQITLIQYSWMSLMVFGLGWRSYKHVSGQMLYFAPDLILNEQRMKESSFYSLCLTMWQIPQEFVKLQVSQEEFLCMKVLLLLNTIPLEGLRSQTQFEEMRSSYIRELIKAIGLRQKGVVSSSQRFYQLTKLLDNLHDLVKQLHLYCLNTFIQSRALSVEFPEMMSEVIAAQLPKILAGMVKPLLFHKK
Briefly: Cellular in vitro assay, GAL4-PR chimera luciferase reporter in CHO K1 cells (selectivity). Conditions: antagonism vs progesterone; CHO K1 GAL4-PR LBD luciferase reporter.
Excerpt: as §1, §2, §3, §4, §5

In the next assay the target is T3, androgen receptor (AR) (Homo sapiens, UniProt P10275).
T3 construct: of the androgen receptor (AR, amino acids 667-919); expressed in transfected cells; host or cells: CHO K1
T3 sequence (P10275 668-920): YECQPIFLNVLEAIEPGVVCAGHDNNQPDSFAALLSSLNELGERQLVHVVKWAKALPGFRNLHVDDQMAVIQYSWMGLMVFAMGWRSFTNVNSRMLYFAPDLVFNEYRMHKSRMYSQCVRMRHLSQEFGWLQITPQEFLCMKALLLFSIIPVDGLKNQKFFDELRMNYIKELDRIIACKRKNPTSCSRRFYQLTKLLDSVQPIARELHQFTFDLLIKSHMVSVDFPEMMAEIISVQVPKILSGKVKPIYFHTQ
In words: Cellular in vitro assay, GAL4-AR chimera luciferase reporter in CHO K1 cells (selectivity). To be noted: antagonism vs dihydrotestosterone; CHO K1 GAL4-AR LBD luciferase reporter.
Excerpt: as §1, §2, §3, §4, §5

The term IC50 denotes the concentration at which inhibition is half-maximal. A lower IC50 goes with greater potency in that assay. With `C[S+]([O-])Cc1cc(F)cc2c(C(CCC#N)c3ccc(Cl)cc3Cl)c[nH]c12` (mixture of isomers) [Example 82, 4-(2,4-Dichlorophenyl)-4-{5-fluoro-7-[(methylsulfinyl)methyl]-1H-indol-3-yl}butanonitrile], the values for the IC50 (in assay [1]; in assay [2]; on androgen receptor (AR)) were 210 nM, 5810 nM and 7530 nM, respectively.

Consider `C[S+]([O-])Cc1cccc2c(C(C)(c3ccc(Cl)cc3F)C3CC3)c[nH]c12` (mixture of isomers) [Example 124, 3-[1-(4-Chloro-2-fluorophenyl)-1-cyclopropylethyl]-7-[(methylsulfinyl)methyl]-1H-indole], for which the figures for the IC50 (in assay [1]; in assay [2]; against androgen receptor (AR)) were 120 nM, 8130 nM and 6940 nM, respectively.

For `C[S+]([O-])Cc1cccc2c(C(c3ccc(F)cc3)c3ccc(Cl)cc3F)c[nH]c12` (mixture of isomers) [Example 130, 3-[(4-Chloro-2-fluorophenyl)(4-fluorophenyl)methyl]-7-[(methylsulfinyl)methyl]-1H-indole], the results for the IC50 (in assay [1]; in assay [2]; against androgen receptor (AR)) were 100 nM, 8880 nM and 5740 nM, respectively.

Regarding `CCC(CCO)(c1ccc(Cl)cc1)c1c[nH]c2c(C[S+](C)[O-])cccc12` (mixture of isomers) [Example 143, 3-(4-Chlorophenyl)-3-{7-[(methylsulfinyl)methyl]-1H-indol-3-yl}pentan-1-ol], the IC50 amounted to 140 nM in assay [1], 4580 nM in assay [2] and 6440 nM against androgen receptor (AR).

Regarding `CCC(CCC#N)(c1ccc(Cl)cc1)c1c[nH]c2c(C[S+](C)[O-])cccc12` (mixture of isomers) [Example 163, 4-(4-Chlorophenyl)-4-{7-[(methylsulfinyl)methyl]-1H-indol-3-yl}hexanonitrile], the IC50 in assay [1] came out at 29 nM; in assay [2], 2720 nM; on androgen receptor (AR) it was 4760 nM.

Consider `C[S+]([O-])Cc1cccc2c(C(c3c(F)cc(Cl)cc3F)C3CC3)c[nH]c12` (mixture of isomers) [Example 238, 3-[(4-Chloro-2,6-difluorophenyl)(cyclopropyl)methyl]-7-[(methylsulfinyl)methyl]-1H-indole], for which the values for the IC50 in assay [1] and in assay [2] were 190 nM and 10000 nM, respectively.

Consider `CS(=O)(=O)Cc1cccc2c(C(c3ccc(C(F)(F)F)cc3)C3CC3(F)F)c[nH]c12` (mixture of isomers) [Example 324, 3-{(2,2-Difluorocyclopropyl)[4-(trifluoromethyl)phenyl]methyl}-7-[(methylsulfonyl)methyl]-1H-indole], for which the figures for the IC50 in assay [1] and in assay [2] were 400 nM and 6900 nM, respectively.

As for `C[S+]([O-])Cc1cccc2c(C(c3ccc(Cl)cc3)c3ccc(Cl)cc3)c[nH]c12` (racemic) [Example 296, 3-[Bis(4-chlorophenyl)methyl]-7-[(methylsulfinyl)methyl]-1H-indole], the IC50 in assay [1] is 210 nM; in assay [2], 4810 nM; at androgen receptor (AR), 6570 nM.

As for `CCC(CCC#N)(c1ccc(Cl)cc1)c1c[nH]c2c(CS(C)(=O)=O)cccc12` (single isomer, unassigned) [Enantiomer 172-1, 4-(4-Chlorophenyl)-4-{7-[(methylsulfonyl)methyl]-1H-indol-3-yl}hexanonitrile], the IC50 in assay [1] was 7 nM; in assay [2], 4310 nM; on androgen receptor (AR) it was 3800 nM.

On to `CSCc1cccc2c(C(CCC#N)c3ccc(Cl)cc3F)c[nH]c12` (single isomer, unassigned) [Example 38-1, 4-(4-Chloro-2-fluorophenyl)-4-{7-[(methylsulfanyl)methyl]-1H-indol-3-yl}butanonitrile], for which the 50% inhibitory concentration (IC50) in assay [1] turned out to be 16 nM; in assay [2] it was 1510 nM; on androgen receptor (AR) it was 1120 nM.

Regarding `C[S+]([O-])Cc1cccc2c(C(CCC#N)c3ccc(Cl)cc3)c[nH]c12` (single isomer, unassigned) [Example 78-4, 4-(4-Chlorophenyl)-4-{7-[(methylsulfinyl)methyl]-1H-indol-3-yl}butanonitrile], the IC50 came out at 150 nM in assay [1], 7910 nM in assay [2] and 8890 nM against androgen receptor (AR).

Regarding `CS(=O)(=O)Cc1cccc2c(C3(C4CC4)CCc4cc(F)ccc43)c[nH]c12` (single isomer, unassigned) [Example 107-1, 3-(1-Cyclopropyl-5-fluoro-2,3-dihydro-1H-inden-1-yl)-7-[(methylsulfonyl)methyl]-1H-indole], the IC50 amounted to 20 nM in assay [1], 9160 nM in assay [2] and 2160 nM against androgen receptor (AR).

Consider `CC(c1ccc(Cl)cc1F)(c1c[nH]c2c(CS(C)(=O)=O)cccc12)C1CC1` (single isomer, unassigned) [Example 111-1, 3-[1-(4-Chloro-2-fluorophenyl)-1-cyclopropylethyl]-7-[(methylsulfonyl)methyl]-1H-indole], for which the IC50 worked out at 30 nM in assay [1], 4500 nM in assay [2] and 2520 nM on androgen receptor (AR).

For `CS(=O)(=O)Cc1cccc2c(C(c3ccc(F)cc3)c3ccc(Cl)cc3)c[nH]c12` (single isomer, unassigned) [Example 114-2, 3-[(4-Chlorophenyl)(4-fluorophenyl)methyl]-7-[(methylsulfonyl)methyl]-1H-indole], the IC50 in assay [1] is 220 nM; in assay [2], 6550 nM; against androgen receptor (AR) it was 1230 nM.

Take `CS(=O)(=O)Cc1cccc2c(C(c3ccc(Cl)cc3Cl)C3CC3(F)F)c[nH]c12` (single isomer, unassigned) [Example 325-1-1, 3-[(2,4-Dichlorophenyl)(2,2-difluorocyclopropyl)methyl]-7-[(methylsulfonyl)methyl]-1H-indole]: the values for the IC50 (in assay [1]; in assay [2]; against androgen receptor (AR)) were 12 nM, 7530 nM and 520 nM, respectively.

For `CS(=O)(=O)Cc1cccc2c(C(c3ccc(Cl)cc3Cl)C3CC3(F)F)c[nH]c12` (single isomer, unassigned) [Example 325-2, 3-[(2,4-Dichlorophenyl)(2,2-difluorocyclopropyl)methyl]-7-[(methylsulfonyl)methyl]-1H-indole], the results for the IC50 (in assay [1]; in assay [2]; on androgen receptor (AR)) were 59 nM, 6660 nM and 5250 nM, respectively.

On to `Cc1cc(Cl)ccc1C(CCO)c1c[nH]c2c(CS(C)(=O)=O)cccc12` (stereo not shown) [Example 26, 3-(4-Chloro-2-methylphenyl)-3-{7-[(methylsulfonyl)methyl]-1H-indol-3-yl}propan-1-ol], for which the figures for the IC50 (in assay [1]; in assay [2]; at androgen receptor (AR)) were 50 nM, 2320 nM and 2230 nM, respectively.

Regarding `CSCc1cc(F)cc2c(C(CCC#N)c3ccc(Cl)cc3)c[nH]c12` (stereo not shown) [Example 43, 4-(4-Chlorophenyl)-4-{5-fluoro-7-[(methylsulfanyl)methyl]-1H-indol-3-yl}butanonitrile], the results for the IC50 (in assay [1]; in assay [2]; against androgen receptor (AR)) were 78 nM, 1980 nM and 2920 nM, respectively.

Turning to `CS(=O)(=O)Cc1cccc2c(C(CCC#N)c3ccc(Cl)cc3Cl)c[nH]c12` (stereo not shown) [Example 62, 4-(2,4-Dichlorophenyl)-4-{7-[(methylsulfonyl)methyl]-1H-indol-3-yl}butanonitrile], the IC50 in assay [1] worked out at 60 nM; in assay [2], 12800 nM; against androgen receptor (AR) it was 7090 nM.
